Key:
[1] = tested on: T. gondii RH strain tachyzoites; test: Toxoplasma gondii cells drug testing assay (infection index in Vero cells, 72 h); assay type: cell-based; details: for IC50: Toxoplasma gondii, Vero, IC50 ± SD, three independent experiments, 72 h; for SI = selectivity index (Vero/T. gondii): ratio IC50 Vero / IC50 T. gondii
Experimental: Cells of the Vero cell line (ATCC® CCL81™, Manassas, VA, USA) were used to cultivate T. gondii RH strain tachyzoites. Vero cells were maintained in complete RPMI 1640 medium (Thermo Fisher Scientific, Waltham, MA, USA). For cell cultivation, 96-well plates were prepared with 5 × 10^3 cells per well in 200 μL of RPMI 1640 medium, then incubated at 37 °C and 5% CO2 for 24 h. The medium was then removed, and cells were washed with phosphate-buffered saline (PBS). Next, RPMI 1640 medium with 2% FBS and parasites at a 5:1 parasite-to-cell ratio were added. After a 5 h incubation at 37 °C and 5% CO2, cells were washed with PBS and subjected to further treatments. […] After incubation at 37 °C and 5% CO2 for 72 h, cells were washed with PBS, fixed in 10% formalin, and stained with 1% toluidine blue. An inverted photomicroscope was used to assess cell infection and to determine the infection index (number of infected cells out of 200 counted cells). The inhibition percentage was calculated as follows:Inhibition (%) = [(I Control − I Experimental)/I Control] × 100 where “I Control” represents the infection index of untreated cells, and “I Experimental” represents the infection index of cells treated with test compounds. The effects of the compounds on parasite growth are expressed as IC50 values derived from three independent experiments.

Vero monkey kidney cells = test: Vero cell cytotoxicity (MTT assay, 72 h); assay type: cell-based; details: Primates, IC50 ± SD
Experimental: To assess the test compounds’ cytotoxicity, MTT assays were performed. The Vero cells and macrophages were cultivated for 24 h at 37 °C in RPMI 1640 media with 10% FBS and 5% CO2 in 96-well plates (5 × 10^3 cells/well/200 μL). Following a washing step with PBS, the cells were treated with test compounds at different concentrations (50, 25, 12.5, 6.25, 3.13, 1.65, and 0.75 μg /mL) in 10% FBS medium for 72 h. Negative control cells were only given media with 2% FBS and 1% DMSO. The cells were cultured for 4 h after the supernatant was disposed of, and 50 μL of RPMI 1640 media containing 14 μL MTT (5 mg/mL) was added. After removing the supernatant once again, 150 μL of DMSO was added. IC50 values were determined from three independent experiments.

L. major promastigotes = test: Leishmania major promastigote assay (MTT, 72 h); assay type: cell-based; details: for IC50: 72 h, IC50 ± SD, MTT
Experimental: (§1) Promastigotes of L. major were obtained from a patient (February 2016) and cultured at 26 °C in Schneider’s Drosophila medium (Invitrogen, Carlsbad, CA, USA) supplemented with 10% heat-inactivated fetal bovine serum (FBS, Invitrogen, USA) and antibiotics, with weekly transfers in a tissue culture flask. Promastigotes were cryopreserved in liquid nitrogen at a concentration of 3 × 10^6 parasites/mL. Virulent L. major parasites were maintained by serial passage in female BALB/c mice, achieved by injecting hind footpads with 1 × 10^6 stationary-phase promastigotes. Amastigotes were isolated from the mice after 8 weeks, then converted to promastigotes by cultivation at 26 °C in Schneider’s medium containing 10% FBS and antibiotics. Amastigote-derived promastigotes, which underwent several in vitro passages, were used for the infection studies. BALB/c mice (both male and female) were provided by the Pharmaceutical College, King Saud University, Kingdom of Saudi Arabia, and housed in specific pathogen-free conditions following the ethical guidelines of the Qassim University Research Ethics Committee (permission number: 20-03-20).
L. major promastigotes in the logarithmic phase were cultured in phenol-red-free RPMI 1640 medium (Invitrogen, USA) with 10% FBS in 96-well plates at 10^6 cells/mL (200 μL/well, counted with a hemocytometer). Test compounds were added at final concentrations of 50, 25, 12.5, 6.25, 3.13, 1.65, and 0.75 μg/mL. […] After incubation at 26 °C for 72 h, viable promastigotes were counted using an MTT colorimetric assay. The formed formazan was dissolved in a detergent and the absorbance was measured at 570 nm using an ELISA reader. IC50 values were derived from three independent experiments.

L. major amastigotes = test: Leishmania major amastigotes in peritoneal macrophages (percentage of infected macrophages, 72 h); assay type: cell-based; details: Macrophage, IC50 ± SD
Experimental: as §1
Activity against amastigotes in macrophages was evaluated using peritoneal macrophages, which were harvested from 6–8-week-old BALB/c mice of different sex, and plated at 5 × 10^4 cells/well in 96-well plates containing phenol-red-free RPMI 1640 medium with 10% FBS. After 4 h at 37 °C and 5% CO2 to promote adhesion, cells were washed with PBS, and 200 μL of an L. major promastigote solution (10 promastigotes per macrophage) was added. Plates were incubated for 24 h at 37 °C in a 5% CO2 environment to allow infection and amastigote differentiation. Infected cells were then washed with PBS and overlaid with RPMI 1640 medium containing the test compounds at the same concentrations as applied for the experiments with promastigotes, followed by incubation at 37 °C and 5% CO2 for 72 h. […] IC50 values were calculated from three independent experiments.

macrophages = test: Macrophage cytotoxicity (MTT assay, 72 h); assay type: cell-based, BALB/c mice; details: Mus musculus, IC50 ± SD
Experimental: Plates were incubated for 24 h at 37 °C in a 5% CO2 environment to allow infection and amastigote differentiation. Infected cells were then washed with PBS and overlaid with RPMI 1640 medium containing the test compounds at the same concentrations as applied for the experiments with promastigotes, followed by incubation at 37 °C and 5% CO2 for 72 h. […] The percentage of infected macrophages was determined microscopically after fixation, Giemsa staining, and medium removal. IC50 values were calculated from three independent experiments. To assess the test compounds’ cytotoxicity, MTT assays were performed. […] Negative control cells were only given media with 2% FBS and 1% DMSO. The cells were cultured for 4 h after the supernatant was disposed of, and 50 μL of RPMI 1640 media containing 14 μL MTT (5 mg/mL) was added. After removing the supernatant once again, 150 μL of DMSO was added. IC50 values were determined from three independent experiments.

Row | IC50 (L. major promastigotes; Leishmania major) [µM] | IC50 (L. major amastigotes) [µM] | melting point [°C] | IC50 (L. major promastigotes) [µM] | Structure (SMILES) | activity against T. gondii (in words) [1] | IC50 [1] [µM] | IC50 (Vero monkey kidney cells) [µM] | IC50 (macrophages) [µM] | SI = selectivity index (Vero/T. gondii) [1] | SI (promastigotes) = selectivity index (macrophages/L. major promastigotes) (L. major promastigotes; ratio IC50 macrophages / IC50 promastigotes)
1 | > 59.1 | 58.6 ± 8.6 | 160 to 161 |  | CC(C)Cc1ccc(CC(C)/C=N/NC(=O)c2ccccc2O)cc1 (stereo not drawn) [Compound 3b, N′-2-Methyl-3-[4-(2-methylpropyl)phenyl]propanylidene-2-hydroxybenzoylhydrazide] |  | 13.7 ± 2.2 | 24.6 ± 3.3 | > 59.1 | 1.8 | 
2 | > 59.1 | > 59.1 | 182 to 183 |  | CC(C)Cc1ccc(CC(C)/C=N/NC(=O)c2cccc(O)c2)cc1 (stereo not drawn) [Compound 3c, N′-2-Methyl-3-[4-(2-methylpropyl)phenyl]propanylidene-3-hydroxybenzoylhydrazide] |  | 55.3 ± 9.4 | > 59.1 | > 59.1 |  | 
3 | > 58.8 | > 58.8 | 82 to 83 |  | CC(C)Cc1ccc(CC(C)/C=N/NC(=O)c2ccccc2F)cc1 (stereo not drawn) [Compound 3d, N′-2-Methyl-3-[4-(2-methylpropyl)phenyl]propanylidene-2-fluorobenzoylhydrazide] |  | 46.3 ± 5.5 | 56.1 ± 10.4 | > 58.8 | 1.2 | 
4 | < 30 | > 56 | 88 to 89 | 29.1 ± 3.3 | CC(C)Cc1ccc(CC(C)/C=N/NC(=O)c2cccc(Cl)c2)cc1 (stereo not drawn) [Compound 3f, N′-2-Methyl-3-[4-(2-methylpropyl)phenyl]propanylidene-3-chlorobenzoylhydrazide] |  | 22 ± 3.3 | 50.2 ± 7.7 | > 56 | 2.3 | >1.9
5 | > 61.8 | > 61.8 | 122 to 123 |  | CC(C)Cc1ccc(CC(C)/C=N/NC(=O)c2ccncc2)cc1 (stereo not drawn) [Compound 3g, N′-2-Methyl-3-[4-(2-methylpropyl)phenyl]propanylidene-isonicotinoylhydrazide] |  | 60.6 ± 10.1 | > 61.8 | > 61.8 |  | 
6 | > 61.7 | > 61.7 | 196 to 197 |  | CC(C)c1cccc(C(C)C/C=N/NC(=O)c2cccc(O)c2)c1 (stereo not drawn) [Compound 4c, N′-3-(3-Isopropylphenyl)butanylidene-3-hydroxybenzoylhydrazide] |  | > 61.7 | 29.1 ± 2.6 | > 61.7 |  | 

More lines, now with the values behind:

Row | Structure (SMILES) | IC50 (L. major promastigotes; Leishmania major) [µM] | IC50 (L. major amastigotes) [µM] | melting point [°C] | IC50 (L. major promastigotes) [µM] | activity against T. gondii (in words) [1] | IC50 [1] [µM] | IC50 (Vero monkey kidney cells) [µM] | IC50 (macrophages) [µM] | SI = selectivity index (Vero/T. gondii) [1] | SI (promastigotes) = selectivity index (macrophages/L. major promastigotes) (L. major promastigotes; ratio IC50 macrophages / IC50 promastigotes)
7 | O=C(N/N=C/C=C/c1ccccc1)c1cccc(O)c1 [Compound 2e, (E)-N′-(Cinnamylidene)-3-hydroxybenzoylhydrazide] | > 49.6 | > 49.6 | 249 to 250 |  | inactive | > 49.6 | 46.2 ± 6.4 | > 49.6 |  | 
8 | CN(C)c1ccc(/C=C/C=N/NC(=O)c2cccc(O)c2)cc1 [Compound 2f, (E)-N′-(4-Dimethylaminocinnamylidene)-3-hydroxybenzoylhydrazide] | > 42.7 | > 42.7 | 257 to 258 |  | inactive | > 42.7 | 40.1 ± 6.8 | > 42.7 |  | 
9 | CN(C)c1ccc(/C=C/C=N/NC(=O)c2ccccc2F)cc1 [Compound 2h, (E)-N′-(4-Dimethylaminocinnamylidene)-2-fluorobenzoylhydrazide] | > 64.2 | > 64.2 | 205 to 206 |  |  | 55.2 ± 9.7 | 54.1 ± 9.1 | > 64.2 | 0.98 | 
10 | O=C(N/N=C/C=C/c1ccccc1)c1cccc(F)c1 [Compound 2i, (E)-N′-(Cinnamylidene)-3-fluorobenzoylhydrazide] | > 49.2 | > 49.2 | 205 to 206 |  |  | 39.1 ± 6.4 | 44 ± 6.7 | > 49.2 | 1.1 | 
11 | CN(C)c1ccc(/C=C/C=N/NC(=O)c2cccc(F)c2)cc1 [Compound 2j, (E)-N′-(4-Dimethylaminocinnamylidene)-3-fluorobenzoylhydrazide] | > 42.4 | > 42.4 | 208 |  |  | > 42.4 | > 42.4 | > 42.4 |  | 
12 | CN(C)c1ccc(/C=C/C=N/NC(=O)c2cccc(Cl)c2)cc1 [Compound 2k, (E)-N′-(4-Dimethylaminocinnamylidene)-3-chlorobenzoylhydrazide] | > 40.3 | > 40.3 | 210 |  |  | > 40.3 | > 40.3 | > 40.3 |  | 
